Laboratory results as given in PubChem BioAssay AID652247 (Sanford-Burnham Center for Chemical Genomics, 2013).
The source made the active and inactive calls. How the calls were made is not given here.

The molecules below were run against NEDD8-conjugating enzyme Ubc12 (Homo sapiens) + NEDD8-activating enzyme E1 regulatory subunit (Homo sapiens) (UniProt P61081+Q13564) (assay: NEDD8 conjugation to CUL1 blockade – biochemical, TR-FRET, dose response (AID 652247)). Settings: in vitro CUL1 neddylation.
Chain of NEDD8-conjugating enzyme Ubc12 (Homo sapiens) + NEDD8-activating enzyme E1 regulatory subunit (Homo sapiens) (P61081 whole entry, looked up): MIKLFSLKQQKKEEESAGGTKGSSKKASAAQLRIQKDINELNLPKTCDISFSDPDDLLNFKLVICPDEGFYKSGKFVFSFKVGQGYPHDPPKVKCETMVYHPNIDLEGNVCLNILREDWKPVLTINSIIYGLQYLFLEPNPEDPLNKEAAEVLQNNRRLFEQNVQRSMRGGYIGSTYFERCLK
Chain of NEDD8-conjugating enzyme Ubc12 (Homo sapiens) + NEDD8-activating enzyme E1 regulatory subunit (Homo sapiens) (Q13564 whole entry, looked up): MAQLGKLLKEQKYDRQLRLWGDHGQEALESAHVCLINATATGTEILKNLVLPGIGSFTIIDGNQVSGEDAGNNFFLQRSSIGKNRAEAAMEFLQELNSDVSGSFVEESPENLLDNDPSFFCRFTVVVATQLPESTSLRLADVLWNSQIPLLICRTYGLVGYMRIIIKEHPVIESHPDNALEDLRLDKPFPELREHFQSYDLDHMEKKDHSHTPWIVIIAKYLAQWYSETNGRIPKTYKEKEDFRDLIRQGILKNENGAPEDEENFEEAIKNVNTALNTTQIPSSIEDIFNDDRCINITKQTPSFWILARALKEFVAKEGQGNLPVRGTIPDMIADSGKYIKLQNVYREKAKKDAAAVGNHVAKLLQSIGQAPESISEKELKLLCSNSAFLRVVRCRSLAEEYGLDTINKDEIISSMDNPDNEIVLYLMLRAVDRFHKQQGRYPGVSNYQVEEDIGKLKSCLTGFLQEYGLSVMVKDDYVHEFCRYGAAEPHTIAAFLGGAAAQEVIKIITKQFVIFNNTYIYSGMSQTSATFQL

Structure (SMILES)	IC50
O=c1c[n+]([O-])c2ccccc2n1OCc1c(F)cccc1F	inactive
CN(C)c1ccc(/C=N/NC(=O)C2CC2c2ccccc2)cc1 (stereo unspecified)	inactive
Cc1ccc(-c2cc(-c3ccc(C)cc3)[n+](-c3ccc(C(=O)[O-])cc3)c(-c3ccc(C)cc3)c2)cc1	inactive
COc1ccc(-c2cc3nc(NCCN4CCCC4)n(C)c(=O)c3s2)cc1OC	inactive
COc1cccc(N(C(=O)c2snc(C(N)=O)c2N)C(C(=O)NCc2ccccc2)c2ccc(O)cc2)c1 (stereo unspecified)	inactive
COC(=O)c1ccc2[nH]c3c(c2c1)CC(C)CC3 (stereo unspecified)	inactive
COc1cc(-c2cc(C(=O)N3CCCCCC3)c3ccccc3n2)cc(OC)c1OC	inactive
CCOc1cc(/C=C/C(=O)Nc2ccc(C(=O)NCCN(CC)CC)cc2)ccc1OCC(C)C	inactive
CCN(CC)c1ccc(/C=N/NC(=O)C2CC2)cc1	inactive
O=C(O)c1ccc2c(=O)n3c(nc2c1)/C(=C/c1ccc(C(F)(F)F)cc1)CC3	inactive
O=c1[nH]cnc2nc(-c3ccccc3)c(-c3ccccc3)nc12	inactive
COc1ccc(-n2cc(CNCc3cnc4ccccn34)c(-c3cccc(F)c3)n2)cc1	inactive
CCC(=O)Nc1nnc(/C=C/c2ccccc2)s1	> 100 µM (inactive)
Cc1cc(C)cc(N(CC(=O)NC2CCCC2)C(=O)C2(C)CC(=O)N=C3C=CC=CN32)c1 (stereo unspecified)	inactive
CCOC(=O)c1cc2c(=O)n3ccccc3nc2n(CCOC)c1=NC(=O)c1ccncc1	inactive
CCOC(=O)Cn1nc(/C=C/c2ccccc2)ccc1=O	inactive
COc1cc(OC)cc(-c2oc3cccnc3c2C#CCCO)c1	inactive

Structure (SMILES)	IC50
O=C(Nc1cc(C(=O)Nc2ccccc2C(=O)O)cc(C(=O)Nc2ccccc2C(=O)O)c1)c1ccccc1	> 100 µM (inactive)
CC(=CCOc1ccc2ccc(=O)oc2c1)C1=CC(=O)C(C)(C)O1	inactive
C=CCN1C(=O)C(CC(=O)O)S/C1=N/N=C/c1ccc(N(CC)CC)cc1 (stereo unspecified)	inactive
CCOCCCn1c(=NC(=O)c2cccnc2)c(C(=O)OCC)cc2c(=O)n3ccccc3nc21	inactive
COC(=O)c1ccc(C(=O)OC)c(=O)[nH]1	inactive
Nc1ncnc2c1ncn2C1OC(COP(=O)(O)O)C(O)C1O (stereo unspecified)	17.4 µM
COc1ccc(-c2cc3ccc(OCc4nn[nH]n4)cc3oc2=O)cc1OC	6.88 µM
COCCN(C(=O)COC(=O)c1cc2ccccc2cc1OC)c1c(N)n(Cc2ccccc2)c(=O)[nH]c1=O	inactive
N=c1c(C(=O)NCCN2CCOCC2)cc2c(=O)n3ccccc3nc2n1Cc1ccc(F)cc1	16.5 µM
CN(C)CCn1c(SCc2ccccc2C#N)nc2c(sc3ccccc32)c1=O	inactive
C[n+]1ccc(-c2ccccc2)c2ccccc21	> 100 µM (inactive)
COCCCNC(=O)/C(C#N)=C/c1c(N2CCN(c3ccccc3)CC2)nc2ccccn2c1=O	inactive
Cc1cccn2c(=O)c3cc(C(=O)NC4CCCC4)sc3nc12	9.39 µM
CCOC(=O)CNC(=O)c1sc(NC(=O)c2ccccc2F)nc1C	inactive
CC1(C)CC(NC(=O)COc2ccc3c4c(c(=O)oc3c2)CCCC4)CC(C)(C)N1	inactive
COc1ccc(Cl)cc1NC(=O)Cn1nnc(C(=O)NCc2ccc3c(c2)OCO3)c1N	10.4 µM
COC(=O)c1ccc(-c2ccc(/C=N/NC(=O)CC3(C)OCCCO3)o2)cc1	inactive

Further lines, results first:

IC50	Structure (SMILES)
17 µM	CCn1c(=O)c(-c2ccccc2)c(O)c2ccccc21
> 100 µM (inactive)	COCc1cc(C)nc2sc(C(=O)Nc3ccc(OC)cc3)c(N)c12
inactive	COc1cc(C=NNC(=O)c2ccc(NS(=O)(=O)c3cccs3)cc2)cc(Br)c1O
inactive	COc1ccc(-c2cn3cccnc3n2)cc1NC(=O)c1cccs1
inactive	COC(=O)c1ccc(/C=C2\CCn3c2nc2cc(C(=O)O)ccc2c3=O)cc1
inactive	CCOc1ccc(C(=O)N/N=C/c2ccc(-c3ccc(S(=O)(=O)Nc4ncccn4)cc3)o2)cc1
> 100 µM (inactive)	COc1ccc(/C=C/c2ccc(=O)n(Cc3ccccc3)n2)cc1
> 100 µM (inactive)	CCN(CC)CCOC(=O)c1ccc(N/C=C(/C#N)c2nc(-c3ccc(OC)cc3)cs2)cc1
> 100 µM (inactive)	Cc1ccc2nc(-c3ccc(NC(=O)COCC(=O)O)cc3)sc2c1
inactive	COc1ccc(OC)c(C=NNC(=O)c2ccccc2NS(=O)(=O)c2cccs2)c1
inactive	COc1ccccc1/C=N/NC(=O)c1ccccc1NS(=O)(=O)c1ccc(C)cc1
17.5 µM	Cc1ccc(Cn2c(=N)c(C(=O)NCCN3CCOCC3)cc3c(=O)n4ccccc4nc32)cc1
inactive	Cc1cc(=O)oc2cc(NC(=O)CN3C(=O)NC(C)(c4ccccc4)C3=O)ccc12 (stereo unspecified)
inactive	Cc1cc(NS(=O)(=O)c2ccc(NS(=O)(=O)c3ccc(Br)cc3)cc2)no1
inactive	COCCNC(=O)COC(=O)c1cc(-c2ccc(OC)cc2)nc2ccccc12
10.6 µM	Cc1ccc2cc3cc(C(=O)NCCCN4CCc5ccccc5C4)oc3nc2c1
inactive	COc1ccc(Nc2cc3n(c(=O)n2)CCc2cc(OC)c(OC)cc2-3)cc1
